# Structures can show the parent of a compound that is named as a salt.
# Molecular target: T1, recombinant IRAK-4 kinase (Homo sapiens, UniProt Q9NWZ3)
# T1 construct: purchased Millipore, USA
# T1 sequence (Q9NWZ3 1-460): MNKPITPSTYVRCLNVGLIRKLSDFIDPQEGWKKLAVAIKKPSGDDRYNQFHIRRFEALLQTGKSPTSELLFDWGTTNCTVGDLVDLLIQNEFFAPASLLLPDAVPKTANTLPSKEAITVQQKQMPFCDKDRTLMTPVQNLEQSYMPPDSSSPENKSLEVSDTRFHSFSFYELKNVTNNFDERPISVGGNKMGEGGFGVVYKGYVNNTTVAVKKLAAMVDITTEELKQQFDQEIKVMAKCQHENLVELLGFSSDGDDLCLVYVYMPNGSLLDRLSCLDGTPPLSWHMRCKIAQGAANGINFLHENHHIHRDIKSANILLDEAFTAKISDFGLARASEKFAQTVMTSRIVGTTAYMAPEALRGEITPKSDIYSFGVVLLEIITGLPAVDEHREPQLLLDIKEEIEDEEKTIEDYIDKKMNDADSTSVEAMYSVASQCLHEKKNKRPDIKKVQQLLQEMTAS
# Test: IRAK-4 Biochemical Assay (TR-FRET)
# Details: 5 ng IRAK-4 kinase, 100 nM Biotin Histone H3, 20 μM ATP, 30 minutes pre-incubation, read-out: IC50 values for IRAK4 activity
# Protocol: Compounds were tested for their potential to inhibit IRAK-4 enzyme in a TR-FRET assay using recombinant IRAK-4 kinase from Millipore, USA. The assay buffer was 50 mM Tris-HCl pH 7.5, 20 mM MgCl2, 1 mM EGTA, 2 mM DTT, 3 mM MnCl2 and 0.01% Tween20. 5 ng of IRAK-4 kinase was used for the assay. After pre-incubation of enzyme with test compound for 30 minutes at room temperature, a substrate mix containing 100 nM Biotin Histone H3 (Millipore, USA) and 20 μM ATP (Sigma, USA) was added and the reaction was incubated for 30 minutes. Post incubation, the reaction was stopped by the addition of stop mix containing 40 mM EDTA, 1 nM of Europium-Anti-Phospho-Histone H3 (Ser10) antibody (Perkin Elmer, USA) and 20 nM Sure Light Allophycocyanin-Streptavidin (Perkin Elmer, USA).
row,IC50 [nM],SMILES
1,< 50,"N[C@H]1CCN(c2nc(C(=O)Nc3cc4sc(N5CCOCC5)nc4nc3N3CCCCC3)co2)C1 [Example 66, (S)-2-(3-aminopyrrolidin-1-yl)-N-(2-morpholino-5-(piperidin-1-yl)thiazolo[4,5-b]pyridin-6-yl)oxazole-4-carboxamide]"
2,< 50,"Cc1cc(-c2nc(C(=O)Nc3cc4sc(N5CCOCC5)nc4nc3N3CC[C@H](N)C3)co2)ccn1 [Example 67, (S)—N-(5-(3-aminopyrrolidin-1-yl)-2-morpholinothiazolo[4,5-b]pyridin-6-yl)-2-(2-methylpyridin-4-yl)oxazole-4-carboxamide]"
3,50 to 100,"N[C@H]1CCN(c2nc(C(=O)Nc3cc4sc(N5CCOCC5)nc4nc3C3CC3)co2)C1 [Example 68, (S)-2-(3-aminopyrrolidin-1-yl)-N-(5-cyclopropyl-2-morpholinothiazolo[4,5-b]pyridin-6-yl)oxazole-4-carboxamide]"
4,< 50,"Cc1cc(-c2nc(C(=O)Nc3cc4sc(N5CCOCC5)nc4nc3C3CC3)co2)ccn1 [Example 69, N-(5-cyclopropyl-2-morpholinothiazolo[4,5-b]pyridin-6-yl)-2-(2-methylpyridin-4-yl)oxazole-4-carboxamide]"
5,< 50,"O=C(Nc1cc2sc(N3CCOCC3)nc2nc1N1CCCCC1)c1coc(N2CC[C@H](O)C2)n1 [Example 70, (S)-2-(3-hydroxypyrrolidin-1-yl)-N-(2-morpholino-5-(piperidin-1-yl)thiazolo[4,5-b]pyridin-6-yl)oxazole-4-carboxamide]"
6,< 50,"Cc1cc(-c2nc(C(=O)Nc3cc4sc(N5CCOCC5)nc4nc3N3CC[C@H](O)C3)co2)ccn1 [Example 71, (S)—N-(5-(3-hydroxypyrrolidin-1-yl)-2-morpholinothiazolo[4,5-b]pyridin-6-yl)-2-(2-methylpyridin-4-yl)oxazole-4-carboxamide]"
7,< 50,"O=C(Nc1cc2sc(N3CCOCC3)nc2nc1C1CC1)c1cccc(N2CC[C@H](O)C2)n1 [Example 72, (S)—N-(5-cyclopropyl-2-morpholinothiazolo[4,5-b]pyridin-6-yl)-6-(3-hydroxypyrrolidin-1-yl)picolinamide]"
8,< 50,"O=C(Nc1cc2sc(N3CCOCC3)nc2nc1C1CC1)c1coc(N2CC[C@H](O)C2)n1 [Example 73, (S)—N-(5-cyclopropyl-2-morpholinothiazolo[4,5-b]pyridin-6-yl)-2-(3-hydroxypyrrolidin-1-yl)oxazole-4-carboxamide]"
9,< 50,"C[C@H](O)Cn1cc(-c2cccc(C(=O)Nc3cc4sc(N5CCOCC5)nc4nc3C3CC3)n2)cn1 [Example 74, (S)—N-(5-cyclopropyl-2-morpholinothiazolo[4,5-b]pyridin-6-yl)-6-(1-(2-hydroxypropyl)-1H-pyrazol-4-yl)picolinamide]"
10,< 50,"C[C@H](O)Cn1cc(-c2nc(C(=O)Nc3cc4sc(N5CCOCC5)nc4nc3C3CC3)co2)cn1 [Example 75, (S)—N-(5-cyclopropyl-2-morpholinothiazolo[4,5-b]pyridin-6-yl)-2-(1-(2-hydroxypropyl)-1H-pyrazol-4-yl)oxazole-4-carboxamide]"
11,< 50,"COc1ccc(-c2nc(C(=O)Nc3cc4sc(N5CCOCC5)nc4nc3N3CCC(O)C3)co2)cn1 (stereo not shown) [Example 76, N-(5-(3-hydroxypyrrolidin-1-yl)-2-morpholinothiazolo[4,5-b]pyridin-6-yl)-2-(6-methoxypyridin-3-yl)oxazole-4-carboxamide]"
12,< 50,"COc1ccc(-c2nc(C(=O)Nc3cc4sc(N5CCOCC5)nc4nc3N3CC[C@H](O)C3)co2)cn1 [Example 77, (S)—N-(5-(3-hydroxypyrrolidin-1-yl)-2-morpholinothiazolo[4,5-b]pyridin-6-yl)-2-(6-methoxypyridin-3-yl)oxazole-4-carboxamide]"
13,< 50,"COc1ccc(-c2nc(C(=O)Nc3cc4sc(N5CCOCC5)nc4nc3N3CC[C@@H](O)C3)co2)cn1 [Example 78, (R)—N-(5-(3-hydroxypyrrolidin-1-yl)-2-morpholinothiazolo[4,5-b]pyridin-6-yl)-2-(6-methoxypyridin-3-yl)oxazole-4-carboxamide]"
14,50 to 100,"O=C(Nc1cc2sc(N3CCOCC3)nc2nc1N1CCC1)c1cccc(N2CC[C@H](O)C2)n1 [Example 79, (S)—N-(5-(azetidin-1-yl)-2-morpholinothiazolo[4,5-b]pyridin-6-yl)-6-(3-hydroxypyrrolidin-1-yl)picolinamide]"
15,< 50,"Cc1cc(-c2nc(C(=O)Nc3cc4sc(N5CCOCC5)nc4nc3N3CC(O)C3)co2)ccn1 [Example 80, N-(5-(3-hydroxyazetidin-1-yl)-2-morpholinothiazolo[4,5-b]pyridin-6-yl)-2-(2-methylpyridin-4-yl)oxazole-4-carboxamide]"
16,> 100,"Cc1cc(-c2ccc(C(=O)Nc3cc4sc(N5CCOCC5)nc4nc3N3CC[C@H](O)C3)s2)ccn1 [Example 81, (S)—N-(5-(3-hydroxypyrrolidin-1-yl)-2-morpholinothiazolo[4,5-b]pyridin-6-yl)-5-(2-methylpyridin-4-yl)thiophene-2-carboxamide]"
17,< 50,"Cc1cc(-c2ccc(C(=O)Nc3cc4sc(N5CCOCC5)nc4nc3N3CC[C@H](O)C3)o2)ccn1 [Example 82, (S)—N-(5-(3-hydroxypyrrolidin-1-yl)-2-morpholinothiazolo[4,5-b]pyridin-6-yl)-5-(2-methylpyridin-4-yl)furan-2-carboxamide]"
18,< 50,"Cc1cc(-c2nc(C(=O)Nc3cc4sc(N5CCOCC5)nc4nc3N3CCC[C@H](O)C3)co2)ccn1 [Example 83, (S)—N-(5-(3-hydroxypiperidin-1-yl)-2-morpholinothiazolo[4,5-b]pyridin-6-yl)-2-(2-methylpyridin-4-yl)oxazole-4-carboxamide]"
19,< 50,"Cc1cc(-c2nc(C(=O)Nc3cc4sc(N5CCOCC5)nc4nc3N3CCC(O)CC3)co2)ccn1 [Example 84, N-(5-(4-hydroxypiperidin-1-yl)-2-morpholinothiazolo[4,5-b]pyridin-6-yl)-2-(2-methylpyridin-4-yl)oxazole-4-carboxamide]"
20,< 50,"Cc1cc(-c2nc(C(=O)Nc3cc4sc(N5CCOCC5)nc4nc3N3CC[C@@H](O)C3)co2)ccn1 [Example 85, (R)—N-(5-(3-hydroxypyrrolidin-1-yl)-2-morpholinothiazolo[4,5-b]pyridin-6-yl)-2-(2-methylpyridin-4-yl)oxazole-4-carboxamide]"
21,< 50,"Cc1cc(-c2nc(C(=O)Nc3cc4sc(N5CCCCC5)nc4nc3N3CCC3)co2)ccn1 [Example 87, N-(5-(azetidin-1-yl)-2-(piperidin-1-yl)thiazolo[4,5-b]pyridin-6-yl)-2-(2-methylpyridin-4-yl)oxazole-4-carboxamide]"
22,< 50,"Cc1cc(-c2nc(C(=O)Nc3cc4sc(N5CCCCC5)nc4nc3N3CCCC3)co2)ccn1 [Example 88, 2-(2-methylpyridin-4-yl)-N-(2-(piperidin-1-yl)-5-(pyrrolidin-1-yl)thiazolo[4,5-b]pyridin-6-yl)oxazole-4-carboxamide]"
23,< 50,"Cc1cc(-c2nc(C(=O)Nc3cc4sc(N5CCOCC5)nc4nc3N3CCCC3)co2)ccn1 [Example 89, 2-(2-methylpyridin-4-yl)-N-(2-morpholino-5-(pyrrolidin-1-yl)thiazolo[4,5-b]pyridin-6-yl)oxazole-4-carboxamide]"
24,< 50,"Cc1cc(-c2ccc(C(=O)Nc3cc4sc(N5CCOCC5)nc4nc3N3CCCCC3)o2)ccn1 [Example 90, 5-(2-methylpyridin-4-yl)-N-(2-morpholino-5-(piperidin-1-yl)thiazolo[4,5-b]pyridin-6-yl)furan-2-carboxamide]"
25,< 50,"Cc1cc(-c2nc(C(=O)Nc3cc4sc(N5CCOCC5)nc4nc3N3CCCCCC3)co2)ccn1 [Example 91, N-(5-(azepan-1-yl)-2-morpholinothiazolo[4,5-b]pyridin-6-yl)-2-(2-methylpyridin-4-yl)oxazole-4-carboxamide]"
26,< 50,"Nc1cc(-c2nc(C(=O)Nc3cc4sc(N5CCOCC5)nc4nc3N3CCCCC3)co2)ccn1 [Example 92, 2-(2-aminopyridin-4-yl)-N-(2-morpholino-5-(piperidin-1-yl)thiazolo[4,5-b]pyridin-6-yl)oxazole-4-carboxamide hydrochloride]"
27,< 50,"Cc1cc(-c2nc(C(=O)Nc3cc4sc(N5CCOCC5)nc4nc3N3CCC3)co2)ccn1 [Example 93, N-(5-(azetidin-1-yl)-2-morpholinothiazolo[4,5-b]pyridin-6-yl)-2-(2-methylpyridin-4-yl)oxazole-4-carboxamide]"
28,< 50,"Cc1cc(-c2nc(C(=O)Nc3cc4sc(N5CCOCC5)nc4nc3N3CCC[C@@H](O)C3)co2)ccn1 [Example 94, (R)—N-(5-(3-hydroxypiperidin-1-yl)-2-morpholinothiazolo[4,5-b]pyridin-6-yl)-2-(2-methylpyridin-4-yl)oxazole-4-carboxamide]"
